Laboratory results reported in patent US7709613B2, “Rhenium-188 and rhenium-186 for treatment of tumors expressing a Na+/I− symporter” (priority 2002, dated 2010).
Like-named read-outs stand apart in the source and are kept apart here.

Columns and labels:
[1] = target: T1, rat thyroid NIS (Rattus norvegicus, UniProt Q63008); conditions: ref. [44], cited from earlier work; for Km: actively transported ions
T1 sequence (Q63008 1-618): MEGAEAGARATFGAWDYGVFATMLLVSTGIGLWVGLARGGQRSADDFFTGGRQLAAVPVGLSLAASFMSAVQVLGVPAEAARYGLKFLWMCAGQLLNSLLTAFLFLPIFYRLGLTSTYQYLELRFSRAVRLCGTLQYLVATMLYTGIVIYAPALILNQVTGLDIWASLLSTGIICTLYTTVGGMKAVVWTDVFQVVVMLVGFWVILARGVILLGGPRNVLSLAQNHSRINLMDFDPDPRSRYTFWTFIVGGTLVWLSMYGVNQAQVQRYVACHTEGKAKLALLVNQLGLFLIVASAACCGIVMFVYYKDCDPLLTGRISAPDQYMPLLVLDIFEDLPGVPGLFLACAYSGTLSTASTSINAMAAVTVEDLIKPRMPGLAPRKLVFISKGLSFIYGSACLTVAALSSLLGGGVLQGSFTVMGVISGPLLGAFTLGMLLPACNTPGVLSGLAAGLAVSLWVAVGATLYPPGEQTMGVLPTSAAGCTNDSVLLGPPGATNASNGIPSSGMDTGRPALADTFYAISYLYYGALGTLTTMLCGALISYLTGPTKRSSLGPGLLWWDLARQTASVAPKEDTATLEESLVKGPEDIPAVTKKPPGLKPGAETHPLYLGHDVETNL

[2] = system: NIS-expressing xenografted mammary adenocarcinoma (NAFA cells); type: in vivo, nude mice
Method: Animal model. […] Since erbB-2 (Neu) is one of the better known human breast cancer oncogenes, a mammary tumor cell line (NAFA) induced by oncogenic Neu was used. The NAFA cell line derived from the MMTV-NeuT mouse was grown in DMEM with 10% fetal bovine serum and 1% penicillin-streptomycin. […] Female nude mice (Charles River Laboratories) 4-6 weeks old were injected SC with 10^6 NAFA cells into the left groin.
Biodistribution. […] In order to block mg-NIS in expressing organs and tumor, control animals were injected with the above mixture of isotopes combined with 2 mg NaClO4. […] The % ID/g for each organ was determined, and RIs (% ID/g in the tumor divided by the % ID/g in normal tissue) were calculated.

[3] = target: T2, hNIS (Homo sapiens, UniProt Q92911); assay: Comparative 125I and 188Re uptake into hNIS-transfected and non-transfected MDCK cells; type: cell-based; conditions: for Km: hNIS-transfected MDCK cells, Lineweaver-Burk plot, 4-min initial rates, read-out: Km for influx
T2 construct: expressed in transfected cells; host or cells: MDCK (Madin-Darby canine kidney) cells, hNIS in pcDNA 3.1
T2 sequence (Q92911 1-643): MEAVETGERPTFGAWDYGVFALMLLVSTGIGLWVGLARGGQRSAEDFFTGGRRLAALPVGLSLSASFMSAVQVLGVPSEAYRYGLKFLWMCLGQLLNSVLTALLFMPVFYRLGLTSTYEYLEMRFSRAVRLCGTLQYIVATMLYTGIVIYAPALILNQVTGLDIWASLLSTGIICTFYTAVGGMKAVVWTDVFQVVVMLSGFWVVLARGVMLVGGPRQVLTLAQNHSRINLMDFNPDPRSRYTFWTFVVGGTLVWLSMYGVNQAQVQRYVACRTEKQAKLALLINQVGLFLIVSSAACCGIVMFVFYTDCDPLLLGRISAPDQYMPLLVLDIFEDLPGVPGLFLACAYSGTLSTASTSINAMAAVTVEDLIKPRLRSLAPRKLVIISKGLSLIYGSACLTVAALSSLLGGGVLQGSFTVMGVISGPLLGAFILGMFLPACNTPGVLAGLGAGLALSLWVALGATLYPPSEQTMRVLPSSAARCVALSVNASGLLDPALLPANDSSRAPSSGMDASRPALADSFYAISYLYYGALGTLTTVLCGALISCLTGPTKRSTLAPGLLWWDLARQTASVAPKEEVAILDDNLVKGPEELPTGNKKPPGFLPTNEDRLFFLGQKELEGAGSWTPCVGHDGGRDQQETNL
Method: Comparative ^125I and ^188Re uptake into the NIS-expressing cells. Both concentration dependence and kinetic experiments for ^125I and ^188ReO4^− in hNIS-transfected (hNIS in pcDNA 3.1 plasmid) and non-transfected MDCK (Madin-Darby canine kidney) cells were performed using the methods of Weiss et al. and Dai et al.. […] A 4-min time point was used to estimate initial rates for kinetic experiments. Saturation kinetics were analyzed by Lineweaver-Burk plot.

[4] = system: FRTL-5 cells; conditions: read-out: Km for ^125I^− influx; cited from earlier work
[5] = ref. [23]; cited from earlier work
[6] = system: NAFA cells-xenografted tumors; assay: Treatment of nude mice bearing NAFA cells-xenografted tumors; type: in vivo; conditions: 1.5 mCi followed by 2nd dose of 1.5 mCi one week later; vs untreated tumors
Method: Animal model. To investigate the binding of ^125I and ^188Re to NIS-expressing mammary tumors, a xenografted mammary adenocarcinoma model in nude mice was used. Since erbB-2 (Neu) is one of the better known human breast cancer oncogenes, a mammary tumor cell line (NAFA) induced by oncogenic Neu was used. The NAFA cell line derived from the MMTV-NeuT mouse was grown in DMEM with 10% fetal bovine serum and 1% penicillin-streptomycin. […] Female nude mice (Charles River Laboratories) 4-6 weeks old were injected SC with 10^6 NAFA cells into the left groin. Ten days after injection the tumors reached 0.5-0.7 cm in diameter.
When the tumors reached 0.5-0.7 cm in diameter, the animals were treated with 1.5 mCi ^188ReO4^− followed by a 2nd dose of 1.5 mCi ^188ReO4^− one week later.

[7] = system: NAFA-cells xenografts; assay: Histological analysis for apoptosis (Apoptag Plus kit) of NAFA-cells xenografts; type: in vivo, nude mice; conditions: 2×1.5 mCi, day 35 post-treatment; vs control tumors
Source text: At the completion of the experimental treatment with ^188Re-perrhenate, the animals were sacrificed, their tumors removed, fixed in buffered formaline, cut and analyzed for apoptosis using an Apoptag Plus® kit. Briefly, 3′-OH termini of DNA fragments, which are the hallmark of apoptosis, were labeled with digoxigenin-modified nucleotides by terminal deoxynucleotidyl transferase (TdT). […] The labeled DNA was detected using an anti-digoxigenin antibody, and the detection was performed using a chromagen. As a result the apoptotic cells were stained brown. The results are shown in FIGS. 5A-5B, where apoptotic cells appear lightly stained in the black-and-white image. […] This observation is consistent with the fact that particulate ionizing radiation is known to cause cell death through both apoptotic and necrotic pathways.

[8] = Dosimetry calculations (MIRDOSE 3) for 70-kg reference adult bearing a 2 g tumor; parameters: species or system human; conditions: using S-values for the whole body
Method: Dosimetry. The self-doses to major organs and tumors from ^131I and ^188Re in humans were calculated using MIRDOSE 3 software (ORNL) applying S-values for a 70-kg reference adult. “S” is an absorbed dose per unit cumulated activity. S-values are tabulated in the Medical Internal Radiation Dose pamphlet #11 published by the Society of Nuclear Medicine. The following formula [26] was used for conversion of time-activity data in mice into time-activity data in humans: % ID human organ=% ID/ganimal organ·(body massaninal/body masshuman)·organ masshuman.
It should be noted that dosimetry calculations in humans were performed with the sole purpose of comparing the therapeutic efficacy and potential damage to the stomach and thyroid from ^131I and ^188Re beta-particles, thus only “self” doses were calculated. […] However, in more comprehensive dosimetry calculations organ cross-irradiation from highly penetrative ^131I gamma-rays should be taken into consideration.

[9] = Safe dose study in healthy mice, 80 days observation, thyroid and stomach histology; type: in vivo; conditions: 1.5 mCi
Method: To establish the safe dose of ^188ReO4^− to treat the NIS-expressing tumors in mice, healthy mice were treated with 1.5 mCi ^188ReO4^− and observed for 80 days. […] After 80 days the animals were sacrificed, their thyroids and stomachs removed and analyzed histologically. FIGS. 3A-3C present the hematoxylin and eosin stained thyroid tissue from a control mouse, a mouse treated with 1.5 mCi ^188ReO4^−, and a mouse treated with 50 μCi ^131I^−. FIGS. 3D-3E show the stomachs from the control mouse and the mouse treated with 1.5 mCi ^188ReO4^−, respectively.

Q: With `[O-][Cl+2]([O-])O` [ClO3^−] as the molecule, how does the Km [1] read?
A: Its Km is 277 µM.

Q: Which “Effect of co-administered blocking agent on uptake of both isotopes by NIS-expressing organs” value ([2]; 2 mg NaClO4 co-injected, all 3 time points) does the source give for `[O-][Cl+3]([O-])([O-])O` [ClO4^−, Na perchlorate, reference compound] here?
A: The value was “significantly decreased uptake of both isotopes by the stomach, salivary glands and thyroid”.

Q: With `O=[N+]([O-])O` [NO3^−] as the molecule, how does the Km [1] read?
A: Its Km is 739 µM.

Q: With `[O]=[Re](=[O])(=[O])[O-]` [ReO4^−] as the molecule, how does the “Blocking of NIS” value [1] read?
A: Its value is “potent blocking agent for NIS”.

Q: For `[I-].[Na+]` [^125I^−, sodium iodide, reference compound], which Km [3] is on record?
A: The Km was 26.1 µM.

Q: And the Km [4]?
A: The Km was 30 µM.

Q: For `[131IH]` [^131I^−], which “Actual dose to the thyroid, due to iodine organification” value [5] is on record?
A: Its value is 1300 rad/mCi.

Q: And the Whole body dose [5]?
A: The Whole body dose was 0.71 rad/mCi.

Q: With `[Na+].[O]=[188Re](=[O])(=[O])[O-]` [^188ReO4^−, Na perrhenate Na^188ReO4] as the molecule, how does the “Concentration gradient in hNIS-transfected in comparison to non-transfected cells” value ([3]; MDCK cells) read?
A: The value was 14 fold.

Q: What about the Tumor growth [6] of the same molecule?
A: Its Tumor growth is “Tumor growth stabilization”.

Q: What about the “Apoptotic cells in tumors” value [7] of the same molecule?
A: The value was “significantly higher number of apoptotic cells”.

Q: What about the “Whole body dose relative to ^131I^−” value [8] of the same molecule?
A: The value was about 2 times.

Q: What about the “Tumor to normal organ ratio (RI)” value ([2]; 20 min, blood) of the same molecule?
A: Its value is 0.41.

Q: And the “Tumor to normal organ ratio (RI)” value ([2]; 20 min, kidneys)?
A: Its value is 1.22.

Q: And the “Tumor to normal organ ratio (RI)” value ([2]; 20 min, liver)?
A: Its value is 1.27.

Q: What about the “Tumor to normal organ ratio (RI)” value ([2]; 20 min, muscle) of the same molecule?
A: Its value is 8.21.

Q: And the “Tumor to normal organ ratio (RI)” value ([2]; 20 min, salivary glands)?
A: Its value is 1.46.

Q: And the “Tumor to normal organ ratio (RI)” value ([2]; 20 min, spleen)?
A: The value was 1.39.

Q: What about the “Tumor to normal organ ratio (RI)” value ([2]; 20 min, stomach) of the same molecule?
A: The value was 0.10.

Q: And the “Tumor to normal organ ratio (RI)” value ([2]; 20 min, thyroid)?
A: Its value is 0.52.

Q: And the “Tumor to normal organ ratio (RI)” value ([2]; 20 min, tumor)?
A: The value was 1.00.

Q: And the “Tumor to normal organ ratio (RI)” value ([2]; 2 hr, blood)?
A: The value was 0.54.

Q: And the “Tumor to normal organ ratio (RI)” value ([2]; 2 hr, kidneys)?
A: Its value is 1.40.

Q: What about the “Tumor to normal organ ratio (RI)” value ([2]; 2 hr, liver) of the same molecule?
A: Its value is 1.43.

Q: What about the “Tumor to normal organ ratio (RI)” value ([2]; 2 hr, muscle) of the same molecule?
A: The value was 5.22.

Q: And the “Tumor to normal organ ratio (RI)” value ([2]; 2 hr, salivary glands)?
A: Its value is 0.54.

Q: What about the “Tumor to normal organ ratio (RI)” value ([2]; 2 hr, spleen) of the same molecule?
A: The value was 2.99.

Q: What about the “Tumor to normal organ ratio (RI)” value ([2]; 2 hr, stomach) of the same molecule?
A: Its value is 0.08.

Q: And the “Tumor to normal organ ratio (RI)” value ([2]; 2 hr, thyroid)?
A: Its value is 0.25.

Q: And the “Tumor to normal organ ratio (RI)” value ([2]; 2 hr, tumor)?
A: Its value is 1.00.

Q: What about the “Tumor to normal organ ratio (RI)” value ([2]; 24 hr, blood) of the same molecule?
A: Its value is 1.45.

Q: And the “Tumor to normal organ ratio (RI)” value ([2]; 24 hr, kidneys)?
A: The value was 3.08.

Q: What about the “Tumor to normal organ ratio (RI)” value ([2]; 24 hr, liver) of the same molecule?
A: The value was 8.00.

Q: What about the “Tumor to normal organ ratio (RI)” value ([2]; 24 hr, muscle) of the same molecule?
A: The value was 12.50.

Q: What about the “Tumor to normal organ ratio (RI)” value ([2]; 24 hr, salivary glands) of the same molecule?
A: The value was 2.85.

Q: What about the “Tumor to normal organ ratio (RI)” value ([2]; 24 hr, spleen) of the same molecule?
A: The value was 10.00.

Q: What about the “Tumor to normal organ ratio (RI)” value ([2]; 24 hr, stomach) of the same molecule?
A: Its value is 0.17.

Q: And the “Tumor to normal organ ratio (RI)” value ([2]; 24 hr, thyroid)?
A: Its value is 2.00.

Q: And the “Tumor to normal organ ratio (RI)” value ([2]; 24 hr, tumor)?
A: Its value is 1.00.

Q: What about the “Damage to normal NIS-containing structures (thyroid, stomach histology)” value ([9]; 80 days, hematoxylin and eosin) of the same molecule?
A: The value was “absence of damage”.

Q: And the “Weight loss or gastrointestinal toxicity” value ([9]; observed for 80 days)?
A: The value was “No weight loss or other gastrointestinal toxicity”.

Q: For `[Na+].[O]=[Re](=[O])(=[O])[O-]` [^188ReO4^−, Na perrhenate Na^188ReO4], which Km [3] is on record?
A: Its Km is 12.6 µM.
